These results are taken from PMC9738062, “Selectively Halogenated Flavonolignans—Preparation and Antibacterial Activity” (International Journal of Molecular Sciences, 2022).

Structures are written as SMILES.

Experiment [1] can be described thus: Ferric reducing antioxidant power (FRAP). The note with it: Fe2+ equivalents. The procedure, abridged:
(§1)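 ABTS and DPPH radical scavenging gauged antiradical activity. Reducing capacity was measured as reduction of Folin–Ciocalteu reagent and of ferric ions (FRAP).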

Experiment [2] concerns Vibrio campbellii BAA 1119 (AI-2). The experiment is described as follows: microbe, parasite or virus in culture. The experiment is classed as cell-based. The conditions noted are these: for EC50: Vibrio campbellii, BAA1119, 16 h, read-out: EC50 (concentration that halved the communication); for SI (selectivity index): ratio IC50 (viability) / EC50 (communication), BAA 1119. The procedure, abridged: (§2)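 Mutant V. campbellii strains responding only to AI-1 (BAA-1118) or AI-2 (BAA-1119), seeded at 5 × 10^5 CFU/mL in Autoinducer Bioassay medium (potassium phosphate pH 7.0); compounds at final 0.2–200 µM.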

Experiment [3] has as its system Vibrio campbellii BAA 1118 (AI-1). The experiment is described as follows: microbe, parasite or virus in culture. In kind it is cell-based. The note with it: for EC50: Vibrio campbellii, BAA1118, 16 h, read-out: EC50 (concentration that halved the communication); for SI (selectivity index): ratio IC50 (viability) / EC50 (communication), BAA 1118. The method, boiled down:
as §2

In experiment [4] the test system is lipopolysaccharide-stimulated macrophages (RAW 264.7). The experiment is described as follows: Inhibition of nitric oxide production (Griess reagent). The experiment is classed as cell-based, murine. The conditions noted are these: Mus musculus, RAW264.7; LPS 100 ng/mL, 24 h; highest tested concentration 100 µM; read-out: NO Production IC50. The procedure, abridged: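 RAW 264.7 macrophages seeded at 1 × 10^6 cells/mL and stimulated with bacterial lipopolysaccharide. After 24 h, medium was mixed 1:1 with Griess reagent (0.04 g/mL) and absorbance read at 540 nm after 15 min. Viability by resazurin.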

In experiment [5] the test system is Vibrio campbellii BAA 1118 (AI-1). The experiment is described as follows: Viability of the quorum-sensing reporter culture (resazurin assay), AI-1 strain. The experiment is classed as cell-based. The note with it: BAA1118, V. campbellii BAA 1118, resazurin assay, read-out: IC50 (concentration that halved the viability). The method, boiled down:
as §2

Experiment [6] relates to multidrug-resistant P. aeruginosa. The experiment is described as follows: Sensitization of antibiotic-resistant bacteria (compound plus breakpoint antibiotic concentration). As to Effect on viability in combination with imipenem: key: -: no effect (100% viability) was observed up to the highest flavonolignan concentration tested (>40 µM); reversion of resistance: the compound reversed the resistant phenotype to a sensitive one. In kind it is cell-based, Pseudomonas aeruginosa. The conditions noted are these: for Effect on viability in combination with colistin: colistin 2 mg/L; for Effect on viability in combination with colistin / Effect on viability in combination with imipenem: flavonoid 40 µM, 24 h; for Effect on viability in combination with imipenem: imipenem 4 mg/L. The procedure, abridged: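 A multidrug-resistant clinical isolate of P. aeruginosa, obtained from the General University Hospital in Prague and resistant to colistin and imipenem among other drugs, was grown in Mueller–Hinton broth. Flavonoid derivatives at up to 40 µM were combined with EUCAST breakpoint antibiotic concentrations. MIC was determined per ISO 20776-1: 2020, with viability read as A590 nm after 24 h at 37 °C, 150 rpm.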

The test system of experiment [7] is pooled male rat microsomal liver membranes. The experiment is described as follows: Inhibition of lipid peroxidation induced by tert-butyl hydroperoxide. The note with it: male rat microsomes, read-out: ILP IC50. The experiment is classed as biochemical. Here is the method:
The antiradical activity was evaluated by the ability to scavenge ABTS and DPPH radicals. Reducing capacity was assessed by the ability to reduce the Folin–Ciocalteu reagent (FCR) and ferric ions (FRAP). The ability to inhibit lipid peroxidation of pooled male rat microsomal liver membranes induced by tert-butyl hydroperoxide was also evaluated and the results were expressed as IC50 values.

A further experiment is described as follows: DPPH radical scavenging. The conditions noted are these: 1,1-diphenyl-2-picrylhydrazyl radical scavenging. The method, boiled down: as §1

For the compound `O=c1c(O)c(-c2ccc(O)c(O)c2)oc2c(Br)c(O)cc(O)c12` [compound 9, 8-bromoquercetin], the “FRAP [Fe2+eq]” value in experiment [1] is 2.44 ± 0.06 Fe2+eq. The results for the EC50 in experiment [2] and in experiment [3] were 0.4 ± 0.02 µM and 25.6 ± 0.5 µM, respectively. Besides, the “SI (selectivity index)” value in experiment [2] was 2.9 ± 0.3; in experiment [3] it was 1.08 ± 0.04. Moreover, the IC50 in experiment [4] is over 100 µM; in experiment [5] it was 27.8 ± 0.5 µM; in experiment [7] it was 38.3 ± 1.9 µM; in “DPPH radical scavenging” it was 2.44 µM. In experiment [6], the “Effect on viability in combination with colistin” value (shortened to “Effect … with colistin”) is listed as “-”. Moreover, the “Effect on viability in combination with imipenem” value (shortened to “Effect … with imipenem”) in experiment [6] is listed as “-”.
Turning to `O=c1c(O)c(-c2ccc(O)c(O)c2)oc2c(Br)c(O)c(Br)c(O)c12` [compound 10, 6,8-dibromoquercetin], in experiment [1], the “FRAP [Fe2+eq]” value is on record as 3.31 ± 0.14 Fe2+eq. For the same compound, the EC50 in experiment [2] worked out at 0.7 ± 0.02 µM; in experiment [3] it was 7.3 ± 0.4 µM. For the same compound, the “SI (selectivity index)” value in experiment [2] was 5.0 ± 0.3; in experiment [3] it was 1.9 ± 0.2. The IC50 is 40.6 ± 2.6 µM in experiment [4], 13.8 ± 0.5 µM in experiment [5], 28.6 ± 1.1 µM in experiment [7] and 3.59 µM in the experiment “DPPH radical scavenging”. Besides, the “Effect … with colistin” value in experiment [6] is on record as “-”. The “Effect … with imipenem” value in experiment [6] is “-”.
Take `COc1cc([C@H]2Oc3cc([C@H]4Oc5cc(O)c(Br)c(O)c5C(=O)[C@@H]4O)ccc3O[C@@H]2CO)ccc1O` [compound 11, 6-Bromosilybin A]: the “FRAP [Fe2+eq]” value in experiment [1] turned out to be 0.072 ± 0.002 Fe2+eq. Further, the EC50 turned out to be 9.4 ± 0.5 µM in experiment [2] and 24.4 ± 0.7 µM in experiment [3]. The figures for the “SI (selectivity index)” value in experiment [2] and in experiment [3] were 5.5 ± 0.3 and 2.1 ± 0.1, respectively. Further, the IC50 came to 40 ± 3.4 µM in experiment [4], 51.7 ± 0.7 µM in experiment [5], 449 µM in experiment [7] and 472 µM in the experiment “DPPH radical scavenging”. Further, the “Effect … with colistin” value in experiment [6] was “-”. In experiment [6], the “Effect … with imipenem” value is reported as “-”.
Consider `COc1cc([C@H]2Oc3cc([C@H]4Oc5c(Br)c(O)c(Br)c(O)c5C(=O)[C@@H]4O)ccc3O[C@@H]2CO)ccc1O` [compound 12, 6,8-dibromosilybin A], for which the “FRAP [Fe2+eq]” value in experiment [1] is given as 0.084 ± 0.004 Fe2+eq. Further, the EC50 came to 13.2 ± 0.3 µM in experiment [2] and 12.2 ± 0.4 µM in experiment [3]. The entries for the “SI (selectivity index)” value in experiment [2] and in experiment [3] were 6.1 ± 0.5 and 1.9 ± 0.2, respectively. Besides, the IC50 in experiment [4] turned out to be 73.9 ± 5.8 µM; in experiment [5] it was 23.5 ± 1 µM; in experiment [7] it was 710 µM; in the experiment “DPPH radical scavenging”, 383 µM. In addition, the “Effect … with colistin” value in experiment [6] is reported as “-”. Also, in experiment [6], the “Effect … with imipenem” value was “-”.
As to `COc1cc([C@@H]2Oc3cc([C@H]4Oc5cc(O)c(Br)c(O)c5C(=O)[C@@H]4O)ccc3O[C@H]2CO)ccc1O` [compound 13, 6-Bromosilybin B], the “FRAP [Fe2+eq]” value in experiment [1] is on record as 0.063 ± 0.001 Fe2+eq. For the same compound, the EC50 in experiment [2] is 26.1 ± 1.3 µM; in experiment [3] it was 14.5 ± 0.5 µM. The “SI (selectivity index)” value turned out to be 2.0 ± 0.1 in experiment [2] and 1.11 ± 0.04 in experiment [3]. Also, the IC50 stood at 37 ± 2.4 µM in experiment [4], 16.1 ± 0.1 µM in experiment [5], 728 µM in experiment [7] and 354 µM in the experiment “DPPH radical scavenging”. For the same compound, in experiment [6], the “Effect … with colistin” value is recorded as “-”. The “Effect … with imipenem” value in experiment [6] is recorded as “-”.
As for `COc1cc([C@@H]2Oc3cc([C@H]4Oc5c(Br)c(O)c(Br)c(O)c5C(=O)[C@@H]4O)ccc3O[C@H]2CO)ccc1O` [compound 14, 6,8-dibromosilybin B], the “FRAP [Fe2+eq]” value in experiment [1] came to 0.081 ± 0.004 Fe2+eq. Besides, the EC50 in experiment [2] was 19.3 ± 0.5 µM; in experiment [3], 14.7 ± 0.7 µM. In addition, the “SI (selectivity index)” value in experiment [2] is reported as 3.1 ± 0.3; in experiment [3], 1.1 ± 0.1. Also, the IC50 in experiment [4] came out at 90.4 ± 4.6 µM; in experiment [5], 16.6 ± 0.8 µM; in experiment [7], 378 µM; in “DPPH radical scavenging” it was 256 µM. Also, in experiment [6], the “Effect … with colistin” value is on record as “-”. Also, the “Effect … with imipenem” value in experiment [6] is “-”.
For `COc1cc(C2Oc3cc(-c4oc5c(Br)c(O)cc(O)c5c(=O)c4O)ccc3OC2CO)ccc1O` (stereo not shown) [compound 16, 8-bromo-2,3-dehydrosilybin AB], the “FRAP [Fe2+eq]” value in experiment [1] worked out at 0.19 ± 0.01 Fe2+eq. Further, the EC50 in experiment [2] is 6.9 ± 0.3 µM; in experiment [3], over 200 µM. In experiment [2], the “SI (selectivity index)” value was 12.7 ± 1.0. Besides, the IC50 in experiment [4] is over 25 µM; in experiment [5], over 200 µM; in experiment [7], 49.2 ± 1.9 µM; in the experiment “DPPH radical scavenging”, 13.4 µM. The “Effect … with colistin” value in experiment [6] was “reversion of resistance”. In experiment [6] (colistin breakpoint concentration), the “Colistin-resistant phenotype of P. aeruginosa (result in words)” value is “reversed the colistin-resistant phenotype in P. aeruginosa to a sensitive one”. The “Effect … with imipenem” value in experiment [6] is recorded as “-”.
Turning to `COc1cc([C@@H]2Oc3c(O)cc(-c4oc5c(Br)c(O)cc(O)c5c(=O)c4O)cc3[C@H]2CO)ccc1O` [compound 18, 8-Bromo-2,3-dehydrosilychristin A], the “FRAP [Fe2+eq]” value in experiment [1] is 0.90 Fe2+eq. The values for the EC50 in experiment [2] and in experiment [3] were 10.5 ± 0.2 µM and 29.4 ± 0.7 µM, respectively. The entries for the “SI (selectivity index)” value in experiment [2] and in experiment [3] were 2.2 ± 0.1 and 2.7 ± 0.1, respectively. The IC50 in experiment [4] was 32.6 ± 1.8 µM; in experiment [5], 80.1 ± 1.7 µM; in experiment [7], 60.1 ± 2.7 µM; in the experiment “DPPH radical scavenging”, 11.1 ± 0.6 µM. Besides, the “Effect … with colistin” value in experiment [6] is reported as “-”. Also, the “Effect … with imipenem” value in experiment [6] is “-”.
Regarding `COc1cc([C@H]2Oc3cc([C@H]4Oc5c(Br)c(O)c(Br)c(O)c5C(=O)[C@@H]4O)ccc3O[C@@H]2CO)cc(Br)c1O` [compound 21, 6,8,21-tribromosilybin A], the “FRAP [Fe2+eq]” value in experiment [1] came to 0.079 ± 0.002 Fe2+eq. The EC50 in experiment [2] is 30.7 ± 1.6 µM; in experiment [3], over 200 µM. Besides, in experiment [2], the “SI (selectivity index)” value is at least 6.5 ± 0.3. Moreover, the IC50 is 70.4 ± 1.7 µM in experiment [4], over 200 µM in experiment [5], 213 µM in experiment [7] and 375 µM in the experiment “DPPH radical scavenging”. The “Effect … with colistin” value in experiment [6] is on record as “-”. In experiment [6], the “Effect … with imipenem” value is given as “-”.
Consider `COc1cc([C@@H]2Oc3cc([C@H]4Oc5c(Br)c(O)c(Br)c(O)c5C(=O)[C@@H]4O)ccc3O[C@H]2CO)cc(Br)c1O` [compound 22, 6,8,21-tribromosilybin B], for which the “FRAP [Fe2+eq]” value in experiment [1] is given as 0.062 ± 0.002 Fe2+eq. Besides, the values for the EC50 in experiment [2] and in experiment [3] were 12 ± 0.5 µM and 4.3 ± 0.3 µM, respectively. In addition, the “SI (selectivity index)” value in experiment [2] is 2.9 ± 0.3; in experiment [3], 1.7 ± 0.1. The IC50 in experiment [4] is over 100 µM; in experiment [5], 7.3 ± 0.1 µM; in experiment [7], 255 µM; in “DPPH radical scavenging” it was 238 µM. Besides, the “Effect … with colistin” value in experiment [6] was “-”. Moreover, in experiment [6], the “Effect … with imipenem” value was “-”.
